Source: US8563490B2, “Mild to the skin, foaming detergent composition” (Conopco, Inc., priority 2010, dated 2013)

Molecular target: a-Chymotrypsin from bovine pancreas (Bos taurus, UniProt P00766)
Protocol: The basis of the mildness assay is the enzymatic activity of Chymotrypsin on a chromogenic substrate. Surfactant mildness is assessed by the effect of a surfactant on the enzyme protein. A harsh surfactant will degrade Chymotrypsin, leading to a lower optical density reading in the reaction well. The enzyme used for this assay is a-Chymotrypsin from bovine pancreas. The enzyme used is the chromogenic substrate for Chymotrypsin, N-Succinyl-Ala-Ala-Pro-Phe-pNA.
The basis of the surfactant protein mildness detecting assay used was the enzymatic activity of Chymotrypsin on a chromogenic substrate. A harsh surfactant degrades Chymotrypsin, leading to a lower absorbance reading. Any reading greater than 0.8% is taken to be a pass for mildness.
For the skin protein protection assay, 70 μl stock buffer solution (33 mM of Tris pH8.0, 180 mM of NaCl, 1 mM of CaCl2), 10 μl substrate stock solution (Ala-Ala-Pro-Phe-pNA; 4 mg/ml) and 20 μl enzyme (α-Chyotrypsin; 10 ng per well) were added to the wells of a 96-well plate together with 100 ul of the formulations pre-diluted 1:10 in water. Reaction mixes were incubated for 45 minutes before colorimetric measurements were taken at 405 nm by a SpectraMax plate reader.

Mildness Lsmean (least squares mean of Absorbance values): 0.36
Substance: Saponin extract from Zizyphus joazero [hh]
